According to US12629363B2, “Prophylaxis and treatment of angioedema” (PHARVARIS GMBH, priority 2020, dated 2026):
Like-named read-outs stand apart in the source and are kept apart here.

Tests used:
[1] = Ascending dose study 22-50 mg in healthy volunteers, PK (Example 4); type: in vivo, human
BK B2 receptor = biological target: T1, BK B2 receptor (Homo sapiens, UniProt P30411); assay: Bradykinin challenge study, PK/PD (Example 3); type: in vivo; conditions: for Time plasma level above EC85 at a 75% confidence level / Time plasma level above EC85 at a 75% confidence level, DBP / Time plasma level above EC85 at a 75% confidence level, MAP: modeling and simulation
T1 sequence (P30411 1-391): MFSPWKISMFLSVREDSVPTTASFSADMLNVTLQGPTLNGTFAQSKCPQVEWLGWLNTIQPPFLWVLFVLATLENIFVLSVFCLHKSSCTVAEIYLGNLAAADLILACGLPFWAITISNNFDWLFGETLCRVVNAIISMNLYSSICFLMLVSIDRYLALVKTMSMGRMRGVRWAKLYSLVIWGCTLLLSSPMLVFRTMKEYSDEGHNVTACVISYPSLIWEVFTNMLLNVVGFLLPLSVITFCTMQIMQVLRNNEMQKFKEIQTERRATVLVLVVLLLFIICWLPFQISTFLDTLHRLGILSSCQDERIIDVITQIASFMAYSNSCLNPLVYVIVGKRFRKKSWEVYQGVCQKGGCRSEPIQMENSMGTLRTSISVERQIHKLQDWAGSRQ
Experimental: The compound (12 and 22 mg) was administered orally (p.o.) to 16 healthy volunteers. BK was injected intravenously prior to oral administration of the compound, i.e. BK predosing challenge, and at 1, 4, 8, 12 and 24 hours after oral administration (dosing) of the 12 and 22 mg single dose, respectively. BK injections were administered to induce cardiovascular responses in the volunteers. The cardiovascular responses were monitored, and blood samples were drawn over 24 hours for PK assessment. The PD outcome variables were measured from 5 min before until 5 min after each BK bolus. A % inhibition-of-the-baseline average-to-peak effect was calculated and used as the PD outcome.
Immediately after BK injection a short-lived change in blood pressure, heart rate and cardiac output can be recorded.
PK was analyzed using a two-compartment body model with first-order oral absorption and a lag time; results are shown in Table 4. For the PK/PD model a simple Emax-model with a direct link was utilized. The PK/PD model was used to simulate PK profiles (N=1000) and calculate probability of durations of effect as well as to visualize effect-time profiles; see FIGS. 4 and 5.

CYP3A4 = CYP3A4 (Homo sapiens, UniProt P08684); assay: In vitro CYP3A4 substrate data; type: in vitro ADME
Sequence of CYP3A4 (P08684 whole entry): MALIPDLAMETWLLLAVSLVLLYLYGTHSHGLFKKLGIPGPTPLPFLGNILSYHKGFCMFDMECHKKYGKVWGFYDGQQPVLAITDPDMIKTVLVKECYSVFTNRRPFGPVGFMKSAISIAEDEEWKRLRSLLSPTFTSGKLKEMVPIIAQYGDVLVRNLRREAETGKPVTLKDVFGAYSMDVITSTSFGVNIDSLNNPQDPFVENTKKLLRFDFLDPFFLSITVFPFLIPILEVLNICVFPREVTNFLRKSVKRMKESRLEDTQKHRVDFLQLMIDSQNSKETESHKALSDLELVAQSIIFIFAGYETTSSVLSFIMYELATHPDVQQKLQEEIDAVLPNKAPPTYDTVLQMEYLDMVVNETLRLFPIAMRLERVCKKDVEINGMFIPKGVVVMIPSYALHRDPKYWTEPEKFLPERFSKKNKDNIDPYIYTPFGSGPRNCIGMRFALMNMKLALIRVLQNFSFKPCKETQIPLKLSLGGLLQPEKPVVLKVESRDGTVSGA

[2] = biological target: T2, endogenous human B2 receptors (Homo sapiens, UniProt P30411); assay: Antagonist potency at endogenous human B2 receptors
T2 sequence (P30411 1-391): T1 sequence (P30411 1-391)

[3] = Single ascending dose study in healthy volunteers, safety and tolerability (Example 2); type: in vivo, human
Experimental: Safety was assessed by physical examination, vital signs, adverse events, safety laboratory and electrocardiogram (ECG) until 72 h post-dosing.

[4] = Ascending dose study 22-50 mg in healthy volunteers, safety and tolerability (Example 4); type: in vivo, human
clinical = conditions: human, in vivo, po, 12 mg
Experimental: Thirteen healthy subjects were enrolled and completed the study.
On Days 4 to 8, subjects received once daily oral doses of 200 mg itraconazole one hour before start of a standard meal.
Trough plasma concentrations of itraconazole were determined by taking predose plasma samples on Days 4-7, to document exposure to itraconazole.

[5] = biological target: T3, cynomolgus monkey B2 receptor (Macaca fascicularis, UniProt A0A7N9CWN6); assay: Antagonist potency in cells expressing cynomolgus monkey B2 receptor; type: cell-based; conditions: read-out: Kb value to antagonize BK activation
T3 sequence (A0A7N9CWN6 1-391): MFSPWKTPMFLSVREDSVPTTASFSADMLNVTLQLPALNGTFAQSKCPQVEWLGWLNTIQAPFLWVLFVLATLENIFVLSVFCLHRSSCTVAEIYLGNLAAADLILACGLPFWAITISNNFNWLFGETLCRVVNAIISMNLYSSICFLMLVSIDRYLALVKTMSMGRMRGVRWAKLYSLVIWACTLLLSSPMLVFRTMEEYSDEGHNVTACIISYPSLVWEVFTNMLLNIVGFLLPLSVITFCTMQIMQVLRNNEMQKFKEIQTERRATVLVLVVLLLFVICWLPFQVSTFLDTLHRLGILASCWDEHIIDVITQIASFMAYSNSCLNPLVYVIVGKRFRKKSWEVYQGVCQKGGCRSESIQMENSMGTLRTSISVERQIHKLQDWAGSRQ
From the text: (§1) The bradykinin B2 receptor is well known for its species selective pharmacology (Paquet et al., Br. J. Pharmacol. (126), 1083-1090, 1999 (DOI: 10.1038/sj.bjp.0702403); Burgess et al., Br. J. Pharmacol. (129), 77-86, 2000 (DOI: 10.1038/sj.bjp.0703012)). […] Pharmacol. 11:916; DOI: 10.3389/fphar.2020.00916.

dog B2 receptor = assay: Antagonist potency in cells expressing dog B2 receptor; type: cell-based; conditions: compared with human B2 receptor
From the text: as §1

[6] = 22 to 50 mg (factor 2.27 increase), after a standardized breakfast
[7] = plasma concentration, PD in BK challenge
[8] = 22 mg, after HCHF breakfast, N = 6

In the case of `[2H][C@@](C)(NC(=O)COC(F)F)c1cc(F)cc(Cl)c1COc1cccc2c(-c3ncnn3C)cc(C)nc12` [compound of formula (I)], the “fold increase for mean AUC0-24h” value [1, 6] is reported as 2.39 fold, the “fold increase for mean Cmax” value [1, 6] is reported as 2.37 fold and the “dose proportionality of PK” value ([1]; 22 to 50 mg after a standardized breakfast) is reported as “dose-proportional PK”. For the same compound, the “change in AUCinf after a standardized breakfast” value ([1]; compared to fasting conditions) was “did not show a significant change”, the “decrease in Cmax after a standardized breakfast” value ([1]; compared to fasting conditions) was 40-50% and the “C12h and C24h plasma concentration, fed vs fasting” value ([1]; human, in vivo) was “higher under fed conditions”. The “time stayed above EC85” value (BK B2 receptor; 12 mg oral dose) was 7 h, the “Time plasma level above EC85 at a 75% confidence level” value (BK B2 receptor; 12 mg p.o.) was 6.5 h and the “Time plasma level above EC85 at a 75% confidence level, DBP” value (BK B2 receptor; 12 mg p.o.) was 7.5 h. For the same compound, the “Time plasma level above EC85 at a 75% confidence level, MAP” value (BK B2 receptor; 12 mg p.o.) was 7 h, the “duration of effect relative to the 12 mg dose” value (BK B2 receptor; 22 mg oral dose) was “approximately twice as long” and the “Time plasma level above EC85 at a 75% confidence level” value (BK B2 receptor; 22 mg p.o.) was 9.5 h. For the same compound, the “Time plasma level above EC85 at a 75% confidence level, DBP” value (BK B2 receptor; 22 mg p.o.) was 10 h, the “Time plasma level above EC85 at a 75% confidence level, MAP” value (BK B2 receptor; 22 mg p.o.) was 10 h and the “potency relative to icatibant based on plasma concentrations” value (BK B2 receptor; BK challenge EC50/EC85) was “approximately four-fold more potent than icatibant”. For the same compound, the EC50 (BK B2 receptor; corrected for plasma protein binding 96.2%, read-out: free plasma concentration associated with EC50 of 2.4 ng/ml) was 0.17 nM, the “intrinsic PD potency at the K B2 receptor, fold higher than icatibant” value (BK B2 receptor; in vivo) was “about 25 fold” and the “Estimated EC85, Cardiac output” value (BK B2 receptor; [7]) was 0.00952 mg/L. For the same compound, the “Estimated EC85, Composite average” value (BK B2 receptor; [7]) was 0.0138 mg/L, the “Estimated EC85, Diastolic blood pressure” value (BK B2 receptor; [7]) was 0.01326 mg/L and the “Estimated EC85, Heart rate” value (BK B2 receptor; [7]) was 0.0187 mg/L. For the same compound, the EC50 (BK B2 receptor; plasma concentration, PD in BK challenge, read-out: Estimated EC50, Cardiac output (converted)) was 3.14 nM, the EC50 (BK B2 receptor; plasma concentration, PD in BK challenge, read-out: Estimated EC50, Composite average (converted)) was 4.49 nM and the EC50 (BK B2 receptor; plasma concentration, PD in BK challenge, read-out: Estimated EC50, Diastolic blood pressure (converted)) was 4.37 nM. For the same compound, the EC50 (BK B2 receptor; plasma concentration, PD in BK challenge, read-out: Estimated EC50, Heart rate (converted)) was 6.17 nM, the CYP3A4 substrate (CYP3A4) was “substrate of CYP3A4” and the “antagonist potency at endogenous human B2 receptors” value [2] was 0.35 nM. The Any adverse effects ([3]; 1 mg, fasted, N = 6) was 2 (33.3%) n (%), the “Any related adverse effects” value ([3]; 1 mg, fasted, N = 6) was 0 n (%) and the “Any serious adverse effects” value ([3]; 1 mg, fasted, N = 6) was 0 n (%). For the same compound, the Any adverse effects ([3]; 2 mg, fasted, N = 6) was 1 (16.7%) n (%), the “Any related adverse effects” value ([3]; 2 mg, fasted, N = 6) was 0 n (%) and the “Any serious adverse effects” value ([3]; 2 mg, fasted, N = 6) was 0 n (%). The Any adverse effects ([3]; 4.5 mg, fasted, N = 6) was 1 (16.7%) n (%), the “Any related adverse effects” value ([3]; 4.5 mg, fasted, N = 6) was 0 n (%) and the “Any serious adverse effects” value ([3]; 4.5 mg, fasted, N = 6) was 0 n (%). For the same compound, the Any adverse effects ([3]; 12 mg, fasted, N = 14) was 5 (35.7%) n (%), the “Any related adverse effects” value ([3]; 12 mg, fasted, N = 14) was 2 (14.3%) n (%) and the “Any serious adverse effects” value ([3]; 12 mg, fasted, N = 14) was 0 n (%). For the same compound, the Any adverse effects [3, 8] was 1 (16.7%) n (%), the “Any related adverse effects” value [3, 8] was 0 n (%) and the “Any serious adverse effects” value [3, 8] was 0 n (%). For the same compound, the Any adverse effects ([3]; 22 mg, fasted, N = 14) was 2 (14.3%) n (%), the “Any related adverse effects” value ([3]; 22 mg, fasted, N = 14) was 1 (7.1%) n (%) and the “Any serious adverse effects” value ([3]; 22 mg, fasted, N = 14) was 0 n (%). For the same compound, the “subjects with treatment-related adverse events” value ([3]; 12 or 22 mg, gastrointestinal, mild severity) was “three”, the “blood pressure fluctuations and orthostatic hypotension” value ([3]; single oral doses up to 22 mg) was “no clinically relevant fluctuations of blood pressure and no orthostatic hypotension” and the “changes in hematology, clinical chemistry, vital signs, or ECG” value ([3]; single oral doses up to 22 mg) was “no apparent trends or dose-related changes”. For the same compound, the safety and tolerability ([3]; single oral doses up to 22 mg) was “safe and well tolerated”, the “changes in vital signs, laboratory, or ECG parameters vs placebo” value ([4]; 22-50 mg single oral doses) was “no clinically significant changes” and the serious adverse effects ([4]; 22-50 mg single oral doses) was “no serious adverse effects reported”. The safety and tolerability ([4]; doses up to 40 mg under fasting and 50 mg under fed conditions) was “safe and well tolerated”, the Tmax (clinical) was 0.5 to 1 h and the half-life (clinical) was 4.31 h. For the same compound, the Kb [5] was 1.42 nM and the “fold less potent towards the dog B2 receptor” value (dog B2 receptor) was 18,000 fold.
